According to patent publication US20020035097A1, “Method of preventing and treating chemotherapy-induced alopecia” (priority 1991, published 2002):

Experiments:
Format in all cases: in vivo, rat
VP-16-induced alopecia = experiment: VP-16 (Etoposide)-induced alopecia in young rats
Description: Twelve 7 day old rats were randomized in two groups. Group I was treated daily with buffer 0.1 ml s.c. for four days. The second Group was treated daily with Vitamin D3 50 μg s.c. over head for four days. After stopping the buffer or Vitamin D3 treatment, all rats received 1.5 mg/kg i.p. of VP-16 (Etoposide) daily for three days.
(§1) 1,25-Dihydroxyvitamin D3 was dissolved in absolute ethanol and applied topically with an applicator. Control animals were similarly treated with the same amount of ethanol. Animals were then kept individually separated for a period of three hours following which the treated area was carefully washed with soap and water and dried. Treatment was given daily beginning on day 5 after birth and ending on day 10.
(§2) All chemotherapies were given I.P. and started at 11 days of age. CTX, 35 mg/kg, was given for one day only. VP-16, 1.5 mg/kg, was given for three days. For CTX and ADM combination, CTX, 25 mg/kg was given for one day and ADM, 2.5 mg/kg, for three days. At these doses neither CTX nor ADM alone will produce alopecia. Alopecia was recorded on the tenth day from beginning chemotherapy.
(§3) A total of 4 experiments were carried out. In the first experiment, protection from Cytoxan-induced alopecia was examined. The experimental group was pretreated with 0.2 μg of 1,25-dihydroxyvitamin D3 in 0.15 ml of absolute ethanol applied topically over the head and neck and the control group received 0.15 ml of alcohol. All 10 rats in the control group became totally alopecic. […] The second experiment was carried out under similar conditions to examine protection from VP-16-induced alopecia. All 10 rats in the control group developed total body alopecia. […] The third experiment was designed to examine protection from alopecia induced by Cytoxan-Adriamycin combination. There were 11 rats in each group. Six rats in the control group developed alopecia over the head and neck and 5 rats developed total body alopecia. […] In the fourth experiment, protection from VP-16-induced alopecia was similarly examined except that the dose of 1,25-dihydroxyvitamin D3 was reduced to 0.1 μg in 0.1 ml absolute ethanol applied topically over the head area only. All 10 rats in the control group became completely alopecic.
as §1, with “RO 23-7553 (1,25 dihydroxy-16-ene-23-yne-cholecalciferol)” for “1,25-Dihydroxyvitamin D3”, “9” for “5”, “14.” for “10.”
On day 15 all animals received VP-16, 1.5 mg/kg i.p., for three days. Alopecia was recorded on day 25.
Thirteen rats were randomized in two groups. Experimental group, 7 rats; control group, 6 rats. The experimental group was pretreated with 1 μg of RO 23-7553 in 0.2 ml absolute ethanol applied topically over the neck and back and the control group received 0.2 ml of absolute ethanol. All six rats in the control group became totally alopecic over the neck and back.

ARA-C-induced alopecia = ARA-C-induced alopecia in young rats
Description: Sprague Dawley rats were purchased from Charles River Laboratories, Wilmington, Mass. Cytosar-U (ARA-C) was from the Upjohn Company, Kalamazoo, Mich. Receptor grade EGF from mouse submaxillary glands, human recombinant EGF, dimethyl sulfoxide (DMSO) and Vitamin D3 were purchased from Sigma Chemical Co., St. Louis, Mo. aFGF was purchased from AMGEN Corp., Thousand Oaks, Calif.
All rats from each experiment were treated with ARA-C 50 mg/kg intraperitoneally (i.p.) daily for 7 days. For subcutaneous (s.c.) injections, EGF and FGF were prepared in PBS 1% BSA. Alopecia was always recorded on day 12 of experiment, and scored as previously described (Hussein et al, Science, 249:1564-1566, 1990; Jimenez et al, FASEB J., 1991).
For topical treatment, murine EGF was prepared as follows: One vial of EGF (100 μg) was dissolved in 0.2 ml of PBS 1% BSA and 0.12 ml of this solution was added to 0.48 of DMSO. Three hours prior to ARA-C injection, 0.1 ml of the EGF-DMSO mixture was applied to each rat over a 1 cm^2 area between the shoulders using a rubber tip applicator. Rats were then kept individually separated for a period of three hours, following which the treated area was carefully washed with soap and water and dried. Treatment was continued for 7 days. Control animals were similarly treated using DMSO without EGF.
Two separate experiments were conducted to test the ability of murine EGF to protect from ARA-C-induced alopecia. In Experiment I, twenty-two 7-day old rats were randomized in two groups of eleven rats each. In addition to ARA-C, Group I received 2 μg of mouse EGF s.c. in the back between the two hind legs 3 hours prior to ARA-C injections daily for 7 days. Group II, received buffer solution similarly and served as control. Ten of eleven rats in Group II developed virtually total body alopecia and one rat developed more than 50% hair loss. In contrast, in Group I, 5 rats had no detectable hair loss and 6 rats had mild hair loss (Table I, Experiment I (FIG. 1)). In Experiment II, twelve 7-day old rats were randomized in two groups of 6 rats each. In addition to ARA-C, Group I received mouse EGF 1 μg s.c. daily for 7 days. Group II received buffer s.c. All 6 rats in Group II developed moderately severe to severe alopecia, whereas in Group I, one rat had no detectable hair loss and 5 rats developed only minimal hair loss (Table I, Experiment II).
For the next experiment, rHu-EGF was used. Twelve 7-day old rats were randomized in two groups of six rats each. In addition to ARA-C, Group I received rHu-EGF 2 μg s.c. in the flank area daily for 7 days. Group II received buffer s.c. All 6 rats in Group II developed total body alopecia, whereas in Group I none of the rats had total body alopecia, one rat had no detectable hair loss, four rats had mild alopecia and one rat had moderate alopecia (Table I, Experiment III, (FIG. 2)).
In the next experiment, twelve 7-day old rats were randomized in two groups of six rats each. Group I, in addition to ARA-C, received murine-EGF 10 μg in DMSO daily×7 days rubbed topically with a cotton tip applicator between the shoulder blades over an area of 1 cm^2. Group II received control solution topically. In Group II, all six rats developed complete body alopecia.
Fourteen 7-day old rats were randomized in two groups. All rats received ARA-C 50 mg/kg/day for seven days. In addition, Group I received aFGF 2 μg s.c. on back of head daily for seven days. Group II received buffer injections and served as controls. Alopecia was recorded on day 12 of experiment. All rats in Group II developed complete body alopecia.

[1] = tested on: Cytoxan/Adriamycin-induced alopecia; experiment: Cytoxan/Adriamycin combination-induced alopecia in young rats
Description: Eight 4-day old Sprague Dawley rats were randomized in two groups of 4 rats each. Group I, received EGF […] s.c. on the head daily for 7 days. Group II received buffer injections and served as controls. One day after stopping EGF or buffer injections all rats received Cytoxan 25 mg/kg i.p.×1 day and Adriamycin 2.5 mg/kg i.p.×3 days. […] (FIG. 5).
as §1
as §2, with “At these doses neither CTX nor ADM alone will produce alopecia.” left out
as §3, with “alcohol.” for “alcohol. All 10 rats in the control group became totally alopecic.”, “VP-16-induced” for “VP-16-induced alopecia. All 10 rats in the control group developed total body”, “group.” for “group. Six rats in the control group developed alopecia over the head and neck and 5 rats developed total body alopecia.”, “only.” for “only. All 10 rats in the control group became completely alopecic.”

Cytoxan-induced alopecia = Cytoxan-induced alopecia in young rats; conditions: 50 μg daily i.p. or s.c. for 4 days prior to chemotherapy; Cytoxan 32.5 mg/kg single injection; 7 experiments, 89 animals
[2] = Experiment I, 2 μg s.c. daily × 7 days, 3 hours prior to ARA-C 50 mg/kg i.p. × 7 days, 11 rats, day 12
[3] = Experiment II, 1 μg s.c. daily × 7 days with ARA-C 50 mg/kg i.p. × 7 days, 6 rats, day 12
[4] = 2μ s.c. on the head daily for 7 days, then Cytoxan 25 mg/kg i.p. × 1 day and Adriamycin 2.5 mg/kg i.p. × 3 days, 4 rats
[5] = Experiment III, 2 μg s.c. in flank daily × 7 days with ARA-C 50 mg/kg i.p. × 7 days, 6 rats, day 12
[6] = Experiment III, 2 μg s.c. in flank daily × 7 days with ARA-C 50 mg/kg i.p. × 7 days, 6 rats, day 12, listed as rHu-ECF

C=C1/C(=C\C=C2/CCC[C@]3(C)C([C@H](C)CC#CC(C)(C)O)=CC[C@@H]23)C[C@@H](O)C[C@@H]1O [RO 23-7553, 1,25 dihydroxy-16-ene-23-yne-cholecalciferol]
Protection from VP-16-induced alopecia (VP-16-induced alopecia; 1 μg in 0.2 ml absolute ethanol topically over neck and back, day 9 to 14 after birth, VP-16 1.5 mg/kg i.p. for three days from day 15, recorded day 25, 7 rats): all animals in the experimental group were protected

Murine EGF: Receptor grade EGF from mouse submaxillary glands (Sigma) (NSYPGCPSSYDGYCLNGGVCMHIESLDSYTCNCVIGYSGDRCQTRDLRWWELR; Epidermal growth factor; UniProt P01132 977-1029, looked up)
Alopecia after topical treatment (ARA-C-induced alopecia; 10 μg in DMSO daily × 7 days topically between shoulder blades over 1 cm^2, ARA-C 50 mg/kg × 7 days, 6 rats): all rats developed complete body alopecia except where the EGF was applied topically
Number of rats with alopecia 0 (no detectable alopecia) (ARA-C-induced alopecia; [2]): 5
Number of rats with alopecia 1+ (mild, less than 50% hair loss) (ARA-C-induced alopecia; [2]): 6
Number of rats with alopecia 2+ (moderately severe, more than 50% hair loss) (ARA-C-induced alopecia; [2]): 0
Number of rats with alopecia 3+ (total or virtually total, >90% hair loss) (ARA-C-induced alopecia; [2]): 0
Number of rats with alopecia 0 (no detectable alopecia) (ARA-C-induced alopecia; [3]): 1
Number of rats with alopecia 1+ (mild, less than 50% hair loss) (ARA-C-induced alopecia; [3]): 5
Number of rats with alopecia 2+ (moderately severe, more than 50% hair loss) (ARA-C-induced alopecia; [3]): 0
Number of rats with alopecia 3+ (total or virtually total, >90% hair loss) (ARA-C-induced alopecia; [3]): 0
Number of rats with alopecia 0 (no detectable alopecia) (ARA-C-induced alopecia; Experiment II, 1 μg s.c. daily × 7 days with ARA-C 50 mg/kg i.p. × 7 days, 6 rats, day 12, listed as mouse EGF): one
Number of rats with mild alopecia over head and neck [1, 4]: one
Number of rats with minimal alopecia over head and neck [1, 4]: one
Number of rats with no detectable alopecia over head and neck [1, 4]: two

aFGF: aFGF, a fibroblast growth factor, purchased from AMGEN Corp.
Protection from ARA-C-induced alopecia (ARA-C-induced alopecia; 2 μg s.c. on back of head daily for seven days, ARA-C 50 mg/kg/day for seven days, day 12): protected locally at the site of injection

C=C1CC[C@H](O)C/C1=C/C=C1\CCC[C@]2(C)[C@@H]([C@H](C)CCCC(C)C)CC[C@@H]12 [Vitamin D3]
Protection from alopecia (ARA-C-induced alopecia; 50 μg daily i.p. or s.c. for 4 days prior to chemotherapy, ARA-C 50 mg/kg i.p. daily for 7 days, 1 experiment, 8 animals): excellent protection and Yes*
Protection from alopecia (Cytoxan-induced alopecia): excellent protection and Yes*
Protection from alopecia ([1]; 50 μg daily i.p. or s.c. for 4 days prior to chemotherapy, Adriamycin 2.5 mg/kg i.p. daily for 3 days plus Cytoxan 25 mg/kg single injection, 6 experiments, 77 animals): excellent protection and Yes*
Protection from alopecia (VP-16-induced alopecia; 50 μg daily i.p. or s.c. for 4 days prior to chemotherapy, VP-16 1.5 mg/kg i.p. daily for 3 days, 2 experiments, 22 animals): excellent protection and Yes*
Protection from VP-16-induced alopecia (VP-16-induced alopecia; 50 μg s.c. over head daily for four days, then VP-16 1.5 mg/kg i.p. daily for three days): protected

rHu-EGF: human recombinant EGF (Sigma)
Number of rats with alopecia 0 (no detectable alopecia) (ARA-C-induced alopecia; [5]): one
Number of rats with alopecia 1+ (mild, less than 50% hair loss) (ARA-C-induced alopecia; [5]): four
Number of rats with alopecia 2+ (moderately severe, more than 50% hair loss) (ARA-C-induced alopecia; [5]): one
Number of rats with alopecia 3+ (total or virtually total, >90% hair loss) (ARA-C-induced alopecia; [5]): none
Number of rats with alopecia 0 (no detectable alopecia) (ARA-C-induced alopecia; [6]): 1
Number of rats with alopecia 1+ (mild, less than 50% hair loss) (ARA-C-induced alopecia; [6]): 4
Number of rats with alopecia 2+ (moderately severe, more than 50% hair loss) (ARA-C-induced alopecia; [6]): 1
Number of rats with alopecia 3+ (total or virtually total, >90% hair loss) (ARA-C-induced alopecia; [6]): 0
